# Measured values published in PubChem BioAssay (NCI).
#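 1) Cells in 96-well plates. 2) Compound, 48 h, 5 concentrations. 3) Linear interpolation between surrounding doses. 4) Unreached endpoint = highest concentration. Abbreviation: GI50, concentration required for 50% inhibition of growth. The concentration for full growth arrest is given as TGI.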
# Key:
# Assay in all cases: NCI anticancer screen, dose series, 48 h
# [1] = tested on: 786-0 renal
# [2] = tested on: A498 renal
# [3] = tested on: A549 NSCLC
# [4] = tested on: ACHN renal
# [5] = tested on: BT-549 breast
# [6] = tested on: CAKI-1 renal
# [7] = tested on: CCRF-CEM leukemia
# [8] = tested on: COLO 205 colon
# [9] = tested on: DU-145 prostate
# [10] = tested on: EKVX NSCLC
# [11] = tested on: HCC-2998 colon
# [12] = tested on: HCT-116 colon
# [13] = tested on: HCT-15 colon
# [14] = tested on: HL-60(TB) leukemia
# [15] = tested on: HOP-62 NSCLC
# [16] = tested on: HOP-92 NSCLC
# [17] = tested on: HS 578T breast
# [18] = tested on: HT29 colon
# [19] = tested on: IGROV1 ovarian
# [20] = tested on: K-562 leukemia
# [21] = tested on: KM12 colon
# [22] = tested on: LOX IMVI melanoma
# [23] = tested on: M14 melanoma
# [24] = tested on: MCF7 breast
# [25] = tested on: MDA-MB-231 breast
# [26] = tested on: MOLT-4 leukemia
# [27] = tested on: NCI-H226 lung
# [28] = tested on: NCI-H23 lung
# [29] = tested on: NCI-H460 lung
# [30] = tested on: NCI-H522 lung
# [31] = tested on: NCI/ADR-RES ovarian
# [32] = tested on: OVCAR-3 ovarian
# [33] = tested on: OVCAR-4 ovarian
# [34] = tested on: OVCAR-5 ovarian
# [35] = tested on: OVCAR-8 ovarian
# [36] = tested on: PC-3 prostate
# [37] = tested on: RPMI-8226 leukemia
# [38] = tested on: SF-268 CNS
# [39] = tested on: SF-295 CNS
# [40] = tested on: SF-539 CNS
# [41] = tested on: SK-MEL-2 melanoma
# [42] = tested on: SK-MEL-28 melanoma
# [43] = tested on: SK-MEL-5 melanoma
# [44] = tested on: SK-OV-3 ovarian
# [45] = tested on: SN12C renal
# [46] = tested on: SNB-19 CNS
# [47] = tested on: SNB-75 CNS
# [48] = tested on: SR leukemia
# [49] = tested on: SW-620 colon
# [50] = tested on: T-47D breast
# [51] = tested on: TK-10 renal
# [52] = tested on: U251 CNS
# [53] = tested on: UACC-257 melanoma
# [54] = tested on: UACC-62 melanoma
# [55] = tested on: UO-31 renal
# [56] = tested on: MALME-3M melanoma
# [57] = tested on: MDA-MB-435
# [58] = tested on: RXF 393 renal
structure (smiles),measurement,setting,value
COc1ccc(-c2c(-c3cc4c(c(OC)c3OC)OCO4)noc2N)cc1,GI50,[1],490 nM
same,TGI,[1],41600 nM
same,GI50,[2],374 nM
same,TGI,[2],> 100000 nM
same,GI50,[3],544 nM
same,TGI,[3],> 100000 nM
same,GI50,[4],1430 nM
same,TGI,[4],> 100000 nM
same,GI50,[5],507 nM
same,TGI,[5],17000 nM
same,GI50,[6],404 nM
same,TGI,[6],> 100000 nM
same,GI50,[7],400 nM
same,TGI,[7],> 100000 nM
same,GI50,[8],277 nM
same,TGI,[8],1250 nM
same,GI50,[9],502 nM
same,TGI,[9],> 100000 nM
same,GI50,[10],4120 nM
same,TGI,[10],> 100000 nM
same,GI50,[11],575 nM
same,TGI,[11],6960 nM
same,GI50,[12],340 nM
same,TGI,[12],15900 nM
same,GI50,[13],391 nM
same,TGI,[13],> 100000 nM
same,GI50,[14],214 nM
same,TGI,[14],1460 nM
same,GI50,[15],457 nM
same,TGI,[15],> 100000 nM
same,GI50,[16],679 nM
same,TGI,[16],46300 nM
same,GI50,[17],365 nM
same,TGI,[17],> 100000 nM
same,GI50,[18],279 nM
same,TGI,[18],3150 nM
same,GI50,[19],1100 nM
same,TGI,[19],> 100000 nM
same,GI50,[20],68.8 nM
same,TGI,[20],> 100000 nM
same,GI50,[21],179 nM
same,TGI,[21],> 100000 nM
same,GI50,[22],480 nM
same,TGI,[22],> 100000 nM
same,GI50,[23],231 nM
same,TGI,[23],3240 nM
same,GI50,[24],282 nM
same,TGI,[24],> 77500 nM
same,GI50,[25],2320 nM
same,TGI,[25],> 62900 nM
same,GI50,[26],621 nM
same,TGI,[26],> 100000 nM
same,GI50,[27],804 nM
same,TGI,[27],> 100000 nM
same,GI50,[28],427 nM
same,TGI,[28],> 100000 nM
same,GI50,[29],379 nM
same,TGI,[29],> 45200 nM
same,GI50,[30],81 nM
same,TGI,[30],432 nM
same,GI50,[31],131 nM
same,TGI,[31],741 nM
same,GI50,[32],184 nM
same,TGI,[32],812 nM
same,GI50,[33],671 nM
same,TGI,[33],> 100000 nM
same,GI50,[34],2430 nM
same,TGI,[34],> 100000 nM
same,GI50,[35],455 nM
same,TGI,[35],> 56100 nM
same,GI50,[36],321 nM
same,TGI,[36],> 100000 nM
same,GI50,[37],503 nM
same,TGI,[37],50900 nM
same,GI50,[38],745 nM
same,TGI,[38],> 95800 nM
same,GI50,[39],275 nM
same,TGI,[39],> 100000 nM
same,GI50,[40],320 nM
same,GI50,[41],235 nM
same,GI50,[42],459 nM
same,TGI,[42],> 100000 nM
same,GI50,[43],311 nM
same,TGI,[43],> 69400 nM
same,GI50,[44],340 nM
same,TGI,[44],14300 nM
same,GI50,[45],792 nM
same,TGI,[45],> 100000 nM
same,GI50,[46],661 nM
same,TGI,[46],> 100000 nM
same,GI50,[47],138 nM
same,TGI,[47],489 nM
same,GI50,[48],37.6 nM
same,TGI,[48],69800 nM
same,GI50,[49],235 nM
same,TGI,[49],> 100000 nM
same,GI50,[50],568 nM
same,TGI,[50],> 100000 nM
same,GI50,[51],343 nM
same,TGI,[51],> 100000 nM
same,GI50,[52],417 nM
same,TGI,[52],> 100000 nM
same,GI50,[53],458 nM
same,TGI,[53],> 100000 nM
same,GI50,[54],534 nM
same,TGI,[54],> 100000 nM
same,GI50,[55],2690 nM
same,TGI,[55],> 100000 nM
C[C@@]1([C@H](OC(=O)c2cccc3ccccc23)C(N)=O)CO1,GI50,[1],1840 nM
same,TGI,[1],14600 nM
same,GI50,[2],16200 nM
same,TGI,[2],34000 nM
same,GI50,[3],2120 nM
same,TGI,[3],> 20700 nM
same,GI50,[4],396 nM
same,TGI,[4],2200 nM
same,GI50,[5],6150 nM
same,TGI,[5],21800 nM
same,GI50,[6],5560 nM
same,TGI,[6],> 100000 nM
same,GI50,[7],1100 nM
same,TGI,[7],> 100000 nM
same,GI50,[8],2990 nM
same,TGI,[8],14400 nM
same,GI50,[9],1610 nM
same,TGI,[9],5640 nM
same,GI50,[10],4530 nM
same,TGI,[10],15700 nM
same,GI50,[11],4510 nM
same,TGI,[11],18200 nM
same,GI50,[12],368 nM
same,TGI,[12],8430 nM
same,GI50,[13],1720 nM
same,TGI,[13],10700 nM
same,GI50,[15],978 nM
same,TGI,[15],7290 nM
same,GI50,[16],2810 nM
same,TGI,[16],17300 nM
same,GI50,[17],3590 nM
same,TGI,[17],> 24600 nM
same,GI50,[18],1050 nM
same,TGI,[18],> 24000 nM
same,GI50,[19],779 nM
same,TGI,[19],3750 nM
same,GI50,[20],1130 nM
same,TGI,[20],> 37500 nM
same,GI50,[21],2090 nM
same,TGI,[21],10800 nM
same,GI50,[22],316 nM
same,TGI,[22],1620 nM
same,GI50,[23],1360 nM
same,TGI,[23],5310 nM
same,GI50,[56],3180 nM
same,TGI,[56],11200 nM
same,GI50,[24],1240 nM
same,TGI,[24],> 100000 nM
same,GI50,[25],1270 nM
same,TGI,[25],9120 nM
same,TGI,[57],1740 nM
same,GI50,[26],187 nM
same,TGI,[26],> 100000 nM
same,GI50,[27],1460 nM
same,TGI,[27],5900 nM
same,GI50,[28],1230 nM
same,TGI,[28],5650 nM
same,GI50,[29],5500 nM
same,TGI,[29],> 30100 nM
same,TGI,[30],6000 nM
same,GI50,[31],540 nM
same,TGI,[31],4800 nM
same,GI50,[32],21600 nM
same,TGI,[32],> 100000 nM
same,GI50,[33],4660 nM
same,TGI,[33],> 76600 nM
same,GI50,[34],3950 nM
same,TGI,[34],24900 nM
same,GI50,[35],594 nM
same,TGI,[35],22700 nM
same,GI50,[36],3200 nM
same,TGI,[36],22800 nM
same,GI50,[37],668 nM
same,TGI,[37],9040 nM
same,GI50,[58],4910 nM
same,TGI,[58],> 21300 nM
same,GI50,[38],4620 nM
same,TGI,[38],> 43000 nM
same,GI50,[39],427 nM
same,TGI,[39],9280 nM
same,GI50,[40],642 nM
same,TGI,[40],2330 nM
same,GI50,[41],1120 nM
same,TGI,[41],7090 nM
same,GI50,[42],3080 nM
same,TGI,[42],15200 nM
same,GI50,[43],2010 nM
same,TGI,[43],5750 nM
same,GI50,[44],6350 nM
same,TGI,[44],19700 nM
same,GI50,[45],360 nM
same,TGI,[45],3950 nM
same,GI50,[46],5750 nM
same,TGI,[46],> 37500 nM
same,GI50,[47],5900 nM
same,TGI,[47],37100 nM
same,GI50,[49],1100 nM
same,GI50,[50],5310 nM
same,TGI,[50],24800 nM
same,GI50,[51],3600 nM
same,TGI,[51],14800 nM
same,GI50,[52],997 nM
same,TGI,[52],7890 nM
same,GI50,[53],4650 nM
same,TGI,[53],> 49000 nM
same,GI50,[54],452 nM
same,TGI,[54],2240 nM
same,GI50,[55],2250 nM
same,TGI,[55],8800 nM
